Like-named read-outs stand apart in the source and are kept apart here.
Legend:
[1] = target: IDH1R132C (Homo sapiens (Human), UniProt O75874, R132C); assay: Inhibitory activity against IDH1R132C enzyme (NADPH detection, WST-8); format: biochemical; details: 10 nM, residual NADPH detected with WST-8, read-out: Test Example 1 IDH1 R132C IC50
[2] = system: HT-1080 cells expressing IDH1R132C; assay: 2-HG production inhibitory activity using HT1080 cell; format: cell-based, human
Procedure: Then, 100 μL of growth medium B was added to each well, further 25 μL of a solution of each compound diluted to a predetermined concentration with growth medium B was added to each well, and the cells were incubated at 37° C. for 2 days under 5% CO2. […] Then, 150 μL of ultrapure water was further added to each well, and the mixture was stirred by pipetting and stored at −20° C.
The preserved solutions were thawed at room temperature.

[3] = system: HT1080 xenografted mice (IDH1R132C); assay: 2-HG production inhibitory activity using HT1080 xenografted mice; format: in vivo, mouse; details: for response vs control in vivo at 75 mg/kg: Mus musculus, HT-1080, po, 6 h, read-out: Test Example 5 Ratio (%)
Procedure: HT1080 xenografted mice having successfully engrafted tumors were given by oral gavage each compound at 75 mg/kg a total of three times twice a day. The compound was suspended in a vehicle solution at 7.5 mg/mL using a homogenizer. Then, the suspension was stored at −20° C., thawed immediately before the administration, and given to mice. A negative control group for the test was given a vehicle by oral gavage. The body weights of the mice were measured using an automatic balance for small animals. The dosing solution was administered at a dose of 10 mL/kg body weight.
6 hours after the final administration, each mouse was euthanized with carbon dioxide. A portion of a tumor was collected, and its weight was measured using an electronic balance. Then, the tumor was frozen on dry ice. To the frozen tumor, methanol was added in an amount of 14 times the tumor weight. The resulting tumor was homogenized with Beads shocker (Yasui Kikai Corp.) and then incubated for 15 minutes in a freezer at −20° C. After centrifugation at 15000 rpm at 4° C. for 15 minutes using a high-speed refrigerated microcentrifuge, 250 μL of methanol and 400 μL of ultrapure water were added to 150 μL of the obtained supernatant. The prepared samples were subjected to 2-HG measurement.

[4] = Homo sapiens, HT-1080, 2-HG production, HT1080 cells, read-out: Test Example 3 IC50
[5] = 2-HG production, HT1080 xenografted mice

IDH1R132C, sequence (O75874 whole entry R132C): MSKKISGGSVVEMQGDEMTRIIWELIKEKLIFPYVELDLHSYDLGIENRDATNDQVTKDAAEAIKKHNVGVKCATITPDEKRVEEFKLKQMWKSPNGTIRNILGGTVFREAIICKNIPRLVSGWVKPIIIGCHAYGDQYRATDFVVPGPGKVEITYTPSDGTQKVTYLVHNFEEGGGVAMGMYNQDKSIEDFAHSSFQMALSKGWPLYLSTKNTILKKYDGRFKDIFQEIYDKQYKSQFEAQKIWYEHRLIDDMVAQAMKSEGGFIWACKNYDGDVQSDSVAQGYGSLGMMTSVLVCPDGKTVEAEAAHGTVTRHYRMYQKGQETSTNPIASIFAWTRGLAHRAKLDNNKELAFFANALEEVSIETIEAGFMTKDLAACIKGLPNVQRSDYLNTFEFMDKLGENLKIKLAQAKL

IC50 [1] [nM]	IC50 [2, 4] [nM]	SMILES	response vs control in vivo at 75 mg/kg [3, 5] [%]	IC50 ([2]; 2-HG production, HT1080 cells, read-out: Test Example 3 IC50) [nM]	Test Example 5 Ratio (%) [3, 5] [%]	IC50 ([2]; Homo sapiens, HT-1080, read-out: Test Example 3 IC50 (nM)) [nM]	response vs control in vivo at 75 mg/kg [3] [%]
197	459	CC(C)(F)c1onc(-c2c(F)cc(Cl)cc2Cl)c1C(=O)n1ccc2c(/C=C/C(=O)O)cccc21 [Example 46, (2E)-3-(1-{[3-(2,4-Dichloro-6-fluorophenyl)-5-(2-fluoropropan-2-yl)-1,2-oxazol-4-yl]carbonyl}-1H-indol-4-yl)prop-2-enoic acid]	69				
98	62	Cc1cn(C(=O)c2c(-c3c(F)cc(Cl)cc3Cl)noc2C(C)(C)F)c2cccc(/C=C/C(=O)O)c12 [Example 47, (2E)-3-(1-{[3-(2,4-Dichloro-6-fluorophenyl)-5-(2-fluoropropan-2-yl)-1,2-oxazol-4-yl]carbonyl}-3-methyl-1H-indol-4-yl)prop-2-enoic acid]	17				
79	119	Cc1cn(C(=O)c2c(-c3c(Cl)cc(F)cc3Cl)noc2C(C)(C)F)c2cccc(/C=C/C(=O)O)c12 [Example 49, (2E)-3-(1-{[3-(2,6-Dichloro-4-fluorophenyl)-5-(2-fluoropropan-2-yl)-1,2-oxazol-4-yl]carbonyl}-3-methyl-1H-indol-4-yl)prop-2-enoic acid]	44				
104	173	Cc1cn(C(=O)c2c(-c3c(Cl)cc(Cl)cc3Cl)noc2C(C)(C)F)c2c(F)ccc(/C=C/C(=O)O)c12 [Example 50, (2E)-3-(7-Fluoro-1-{[5-(2-fluoropropan-2-yl)-3-(2,4,6-trichlorophenyl)-1,2-oxazol-4-yl]carbonyl}-3-methyl-1H-indol-4-yl)prop-2-enoic acid]	84				
136	263	Cc1cn(C(=O)c2c(-c3c(F)cccc3Cl)noc2C(C)(C)F)c2cccc(/C=C/C(=O)O)c12 [Example 52, (2E)-3-(1-{[3-(2-Chloro-6-fluorophenyl)-5-(2-fluoropropan-2-yl)-1,2-oxazol-4-yl]carbonyl}-3-methyl-1H-indol-4-yl)prop-2-enoic acid]	71				
163	146	Cc1cn(C(=O)c2c(-c3c(Cl)cccc3Cl)noc2C(C)(C)F)c2cccc(/C=C/C(=O)O)c12 [Example 53, (2E)-3-(1-{[3-(2,6-Dichlorophenyl)-5-(2-fluoropropan-2-yl)-1,2-oxazol-4-yl]carbonyl}-3-methyl-1H-indol-4-yl)prop-2-enoic acid]	60				
109	90	Cc1cn(C(=O)c2c(-c3c(F)cc(Cl)cc3F)noc2C(C)(C)F)c2cccc(/C=C/C(=O)O)c12 [Example 54, (2E)-3-(1-{[3-(4-Chloro-2,6-difluorophenyl)-5-(2-fluoropropan-2-yl)-1,2-oxazol-4-yl]carbonyl}-3-methyl-1H-indol-4-yl)prop-2-enoic acid]			16		
125	62	Cc1cc(Cl)cc(C)c1-c1noc(C(C)(C)F)c1C(=O)n1cc(C)c2c(/C=C/C(=O)O)cccc21 [Example 55, (2E)-3-(1-{[3-(4-Chloro-2,6-dimethylphenyl)-5-(2-fluoropropan-2-yl)-1,2-oxazol-4-yl]carbonyl}-3-methyl-1H-indol-4-yl)prop-2-enoic acid]	15				

Second part, the compound before the results:

SMILES	IC50 [1] [nM]	IC50 [2, 4] [nM]	response vs control in vivo at 75 mg/kg [3, 5] [%]	IC50 ([2]; 2-HG production, HT1080 cells, read-out: Test Example 3 IC50) [nM]	Test Example 5 Ratio (%) [3, 5] [%]	IC50 ([2]; Homo sapiens, HT-1080, read-out: Test Example 3 IC50 (nM)) [nM]	response vs control in vivo at 75 mg/kg [3] [%]
Cc1cn(C(=O)c2c(-c3c(Cl)cc(Cl)cc3Cl)noc2C(C)C)c2cccc(/C=C/C(=O)O)c12 [Example 29, (2E)-3-(1-{[5-(Propan-2-yl)-3-(2,4,6-trichlorophenyl)-1,2-oxazol-4-yl]carbonyl}-3-methyl-1H-indol-4-yl)prop-2-enoic acid]	102	94	39				
Cc1cn(C(=O)c2c(-c3c(Cl)cc(Cl)cc3Cl)noc2C(C)(C)C)c2cccc(/C=C/C(=O)O)c12 [Example 33, (2E)-3-(1-{[5-(tert-Butyl)-3-(2,4,6-trichlorophenyl)-1,2-oxazol-4-yl]carbonyl}-3-methyl-1H-indol-4-yl)prop-2-enoic acid]	193	43	15				
CC(C)(C)c1noc(-c2c(Cl)cc(Cl)cc2Cl)c1C(=O)n1ccc2c(/C=C/C(=O)O)cccc21 [Example 34, (2E)-3-(1-{[3-(tert-Butyl)-5-(2,4,6-trichlorophenyl)-1,2-oxazol-4-yl]carbonyl}-1H-indol-4-yl)prop-2-enoic acid]	364	209	55				
CC(C)(C)c1onc(-c2c(F)cc(Cl)cc2Cl)c1C(=O)n1ccc2c(/C=C/C(=O)O)cccc21 [Example 35, (2E)-3-(1-{[5-(tert-Butyl)-3-(2,4-dichloro-6-fluorophenyl)-1,2-oxazol-4-yl]carbonyl}-1H-indol-4-yl)prop-2-enoic acid]	161	244	64				
CC(C)(F)c1onc(-c2c(Cl)cc(Cl)cc2Cl)c1C(=O)n1ccc2c(/C=C/C(=O)O)cccc21 [Example 36, (2E)-3-(1-{[5-(2-Fluoropropan-2-yl)-3-(2,4,6-trichlorophenyl)-1,2-oxazol-4-yl]carbonyl}-1H-indol-4-yl)prop-2-enoic acid]	109	170	43				
CC1(c2onc(-c3c(Cl)cc(Cl)cc3Cl)c2C(=O)n2ccc3c(/C=C/C(=O)O)cccc32)CC1 [Example 37, (2E)-3-(1-{[5-(1-Methylcyclopropyl)-3-(2,4,6-trichlorophenyl)-1,2-oxazol-4-yl]carbonyl}-1H-indol-4-yl)prop-2-enoic acid]	117	149	35				
Cc1cc(Cl)c(-c2noc(C(C)(C)C)c2C(=O)n2ccc3c(/C=C/C(=O)O)cccc32)c(Cl)c1 [Example 38, (2E)-3-(1-{[5-(tert-Butyl)-3-(2,6-dichloro-4-methylphenyl)-1,2-oxazol-4-yl]carbonyl}-1H-indol-4-yl)prop-2-enoic acid]	234	200	61				
CC(C)(C)c1onc(-c2c(Cl)cc(Cl)cc2Cl)c1C(=O)n1cc(F)c2c(/C=C/C(=O)O)cccc21 [Example 40, (2E)-3-(1-{[5-(tert-Butyl)-3-(2,4,6-trichlorophenyl)-1,2-oxazol-4-yl]carbonyl}-3-fluoro-1H-indol-4-yl)prop-2-enoic acid]	159	57	18				
COCC(C)(C)c1onc(-c2c(Cl)cc(Cl)cc2Cl)c1C(=O)n1ccc2c(/C=C/C(=O)O)cccc21 [Example 42, (2E)-3-(1-{[5-(1-Methoxy-2-methylpropan-2-yl)-3-(2,4,6-trichlorophenyl)-1,2-oxazol-4-yl]carbonyl}-1H-indol-4-yl)prop-2-enoic acid]	217	178	84				
Cc1cn(C(=O)c2c(-c3c(Cl)cc(Cl)cc3Cl)noc2C2(C)CC2)c2cccc(/C=C/C(=O)O)c12 [Example 43, (2E)-3-(3-Methyl-1-{[5-(1-methylcyclopropyl)-3-(2,4,6-trichlorophenyl)-1,2-oxazol-4-yl]carbonyl}-1H-indol-4-yl)prop-2-enoic acid]	139	63	54				
COC1(c2onc(-c3c(Cl)cc(Cl)cc3Cl)c2C(=O)n2ccc3c(/C=C/C(=O)O)cccc32)CC1 [Example 44, (2E)-3-(1-{[5-(1-Methoxycyclopropyl)-3-(2,4,6-trichlorophenyl)-1,2-oxazol-4-yl]carbonyl}-1H-indol-4-yl)prop-2-enoic acid]	189	194	72				
CC(C)(C)c1onc(-c2c(Cl)cc(Cl)cc2Cl)c1C(=O)n1ccc2c(/C=C/C(=O)O)ccc(F)c21 [Example 48]	193			115	72		
Cc1cn(C(=O)c2c(-c3c(Cl)cc(Cl)cc3Cl)noc2C(C)(F)F)c2cccc(/C=C/C(=O)O)c12 [Example 51, (2E)-3-(1-{[5-(1,1-Difluoroethyl)-3-(2,4,6-trichlorophenyl)-1,2-oxazol-4-yl]carbonyl}-3-methyl-1H-indol-4-yl)prop-2-enoic acid]	115					83	52

From patent US10040791B2, “Isoxazole derivative as mutant isocitrate dehydrogenase 1 inhibitor” (Daiichi Sankyo Company, Limited, priority 2014, dated 2018)
